The target in the test is T1, TMPRSS2 (transmembrane serine protease 2) (Homo sapiens, UniProt O15393).
T1 construct: Recombinant human TMPRSS2 (106-492aa, 6xHisTag)
In words: microscale thermophoresis (His-tag RED-tris-NTA labelled protein, […]). The class given is binding. On the technique in general: Microscale thermophoresis detects binding through changes in fluorescence in a small temperature gradient.

T1 sequence (O15393 106-492): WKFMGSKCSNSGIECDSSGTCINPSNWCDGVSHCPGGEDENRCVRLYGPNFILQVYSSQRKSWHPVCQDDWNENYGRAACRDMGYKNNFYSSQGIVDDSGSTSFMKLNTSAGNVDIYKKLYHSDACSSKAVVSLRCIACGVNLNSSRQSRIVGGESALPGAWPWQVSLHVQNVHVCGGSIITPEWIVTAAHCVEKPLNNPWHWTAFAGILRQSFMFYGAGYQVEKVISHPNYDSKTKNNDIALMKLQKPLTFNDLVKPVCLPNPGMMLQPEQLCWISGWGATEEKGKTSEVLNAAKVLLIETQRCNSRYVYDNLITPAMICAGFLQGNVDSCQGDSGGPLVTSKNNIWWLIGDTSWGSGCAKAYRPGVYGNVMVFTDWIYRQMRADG

With `CN(Cc1cc(Br)cc(Br)c1N)C1CCCCC1` [BH, bromhexine], the Kd (as a rule, the constant that tells how readily two partners part at equilibrium) was 24 ± 13 µM.

These data come from article PMC8119889, “Computational Identification of a Putative Allosteric Binding Pocket in TMPRSS2” (Frontiers in Molecular Biosciences, 2021).
